Results: publication PMC11345841, “Exploring 2-Sulfonylpyrimidine Warheads as Acrylamide Surrogates for Targeted Covalent Inhibition: A BTK Story” (Journal of Medicinal Chemistry, 2024)
Like-named read-outs stand apart in the source and are kept apart here.

How the values were obtained:
Experiment in all cases: KINOMEscan ScanTK
Assay type in all cases: binding
[1] = target: T1, ABL1(Q252H)-phosphorylated (Homo sapiens, UniProt P00519, Q252H); conditions: for difference in %Control versus reference Ib at 1 µM: read-out: % difference (compound - Ib %Control)
T1 construct: purchased Eurofins DiscoverX KINOMEscan (scanTK)

CTK = target: T2, CTK (Homo sapiens, UniProt P42679)
T2 construct: purchased Eurofins DiscoverX KINOMEscan (scanTK)
T2 sequence (P42679 1-507): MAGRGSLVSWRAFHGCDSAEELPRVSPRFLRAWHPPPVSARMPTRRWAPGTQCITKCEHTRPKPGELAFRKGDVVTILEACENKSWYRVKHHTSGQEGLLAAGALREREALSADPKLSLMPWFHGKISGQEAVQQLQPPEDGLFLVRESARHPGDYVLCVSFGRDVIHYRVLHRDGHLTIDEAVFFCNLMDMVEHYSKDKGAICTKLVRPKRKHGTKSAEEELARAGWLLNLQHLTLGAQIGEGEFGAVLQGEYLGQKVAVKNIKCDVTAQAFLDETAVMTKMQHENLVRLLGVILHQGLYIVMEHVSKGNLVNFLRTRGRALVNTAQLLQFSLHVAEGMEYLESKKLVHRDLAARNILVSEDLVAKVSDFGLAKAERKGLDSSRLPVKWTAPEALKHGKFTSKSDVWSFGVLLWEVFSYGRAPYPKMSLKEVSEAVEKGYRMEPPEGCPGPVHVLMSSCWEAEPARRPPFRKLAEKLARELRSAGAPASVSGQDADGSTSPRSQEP

EPHB2 = target: T3, EPHB2 (Homo sapiens, UniProt P29323)
T3 construct: purchased Eurofins DiscoverX KINOMEscan (scanTK)
T3 sequence (P29323 19-1055): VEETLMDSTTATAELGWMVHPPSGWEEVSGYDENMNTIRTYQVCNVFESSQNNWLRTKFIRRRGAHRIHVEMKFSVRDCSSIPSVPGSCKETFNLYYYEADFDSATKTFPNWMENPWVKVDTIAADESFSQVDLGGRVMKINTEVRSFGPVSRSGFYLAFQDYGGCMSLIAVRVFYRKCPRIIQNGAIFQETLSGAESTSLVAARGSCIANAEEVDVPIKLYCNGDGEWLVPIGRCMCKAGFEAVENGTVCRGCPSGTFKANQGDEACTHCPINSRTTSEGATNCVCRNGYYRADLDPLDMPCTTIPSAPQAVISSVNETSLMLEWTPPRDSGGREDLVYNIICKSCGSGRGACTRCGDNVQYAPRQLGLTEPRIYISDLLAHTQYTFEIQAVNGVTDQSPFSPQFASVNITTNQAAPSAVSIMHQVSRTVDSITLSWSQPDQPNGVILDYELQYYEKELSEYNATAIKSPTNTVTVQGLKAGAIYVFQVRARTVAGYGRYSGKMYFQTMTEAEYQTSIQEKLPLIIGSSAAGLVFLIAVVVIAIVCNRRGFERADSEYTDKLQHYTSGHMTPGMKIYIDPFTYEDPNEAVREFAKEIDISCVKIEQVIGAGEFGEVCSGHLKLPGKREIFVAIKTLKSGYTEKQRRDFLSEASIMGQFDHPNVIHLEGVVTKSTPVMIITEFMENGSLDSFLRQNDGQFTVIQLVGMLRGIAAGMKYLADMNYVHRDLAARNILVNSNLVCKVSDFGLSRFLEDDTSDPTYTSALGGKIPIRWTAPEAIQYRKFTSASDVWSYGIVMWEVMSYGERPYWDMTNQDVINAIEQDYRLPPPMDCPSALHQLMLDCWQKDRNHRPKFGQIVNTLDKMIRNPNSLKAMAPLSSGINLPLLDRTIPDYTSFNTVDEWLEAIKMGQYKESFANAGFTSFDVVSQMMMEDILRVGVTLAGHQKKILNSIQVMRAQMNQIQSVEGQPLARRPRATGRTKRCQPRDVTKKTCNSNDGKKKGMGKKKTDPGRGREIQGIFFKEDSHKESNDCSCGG

FGFR3(G697C) = target: T4, FGFR3(G697C) (Homo sapiens, UniProt P22607, G697C)
T4 construct: purchased Eurofins DiscoverX KINOMEscan (scanTK)

KIT(D816H) = target: T5, KIT(D816H) (Homo sapiens, UniProt P10721, D816H)
T5 construct: purchased Eurofins DiscoverX KINOMEscan (scanTK)

KIT(D816V) = target: T6, KIT(D816V) (Homo sapiens, UniProt P10721, D816V)
T6 construct: purchased Eurofins DiscoverX KINOMEscan (scanTK)

KIT(L576P) = target: T7, KIT(L576P) (Homo sapiens, UniProt P10721, L576P); conditions: for difference in %Control versus Ib at 1 µM: read-out: % difference (compound - Ib %Control)
T7 construct: purchased Eurofins DiscoverX KINOMEscan (scanTK)

KIT(V559D,T670I) = target: T8, KIT(V559D,T670I) (Homo sapiens, UniProt P10721, T670I/V559D)
T8 construct: purchased Eurofins DiscoverX KINOMEscan (scanTK)

PYK2 = target: T9, PYK2 (Homo sapiens, UniProt Q14289)
T9 construct: purchased Eurofins DiscoverX KINOMEscan (scanTK)

TNK1 = target: T10, TNK1 (Homo sapiens, UniProt Q13470)
T10 construct: purchased Eurofins DiscoverX KINOMEscan (scanTK)
T10 sequence (Q13470 1-666): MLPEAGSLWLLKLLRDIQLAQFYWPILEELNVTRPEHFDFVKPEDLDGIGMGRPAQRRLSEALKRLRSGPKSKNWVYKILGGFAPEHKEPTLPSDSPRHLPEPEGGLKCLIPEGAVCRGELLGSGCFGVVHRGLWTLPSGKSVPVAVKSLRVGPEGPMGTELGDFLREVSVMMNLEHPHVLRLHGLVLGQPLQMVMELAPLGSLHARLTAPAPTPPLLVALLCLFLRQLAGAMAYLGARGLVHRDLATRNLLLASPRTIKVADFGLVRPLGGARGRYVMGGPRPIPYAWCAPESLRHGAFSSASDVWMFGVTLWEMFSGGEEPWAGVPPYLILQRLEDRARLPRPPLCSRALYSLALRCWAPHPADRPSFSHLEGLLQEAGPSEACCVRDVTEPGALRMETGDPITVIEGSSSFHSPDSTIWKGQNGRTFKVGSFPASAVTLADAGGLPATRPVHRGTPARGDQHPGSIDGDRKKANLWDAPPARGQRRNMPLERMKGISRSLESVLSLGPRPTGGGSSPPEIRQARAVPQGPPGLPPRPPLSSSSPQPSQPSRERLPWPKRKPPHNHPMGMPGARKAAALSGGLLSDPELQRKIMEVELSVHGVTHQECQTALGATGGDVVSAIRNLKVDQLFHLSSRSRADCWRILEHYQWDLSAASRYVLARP

T4 sequence (P22607 23-806 G697C): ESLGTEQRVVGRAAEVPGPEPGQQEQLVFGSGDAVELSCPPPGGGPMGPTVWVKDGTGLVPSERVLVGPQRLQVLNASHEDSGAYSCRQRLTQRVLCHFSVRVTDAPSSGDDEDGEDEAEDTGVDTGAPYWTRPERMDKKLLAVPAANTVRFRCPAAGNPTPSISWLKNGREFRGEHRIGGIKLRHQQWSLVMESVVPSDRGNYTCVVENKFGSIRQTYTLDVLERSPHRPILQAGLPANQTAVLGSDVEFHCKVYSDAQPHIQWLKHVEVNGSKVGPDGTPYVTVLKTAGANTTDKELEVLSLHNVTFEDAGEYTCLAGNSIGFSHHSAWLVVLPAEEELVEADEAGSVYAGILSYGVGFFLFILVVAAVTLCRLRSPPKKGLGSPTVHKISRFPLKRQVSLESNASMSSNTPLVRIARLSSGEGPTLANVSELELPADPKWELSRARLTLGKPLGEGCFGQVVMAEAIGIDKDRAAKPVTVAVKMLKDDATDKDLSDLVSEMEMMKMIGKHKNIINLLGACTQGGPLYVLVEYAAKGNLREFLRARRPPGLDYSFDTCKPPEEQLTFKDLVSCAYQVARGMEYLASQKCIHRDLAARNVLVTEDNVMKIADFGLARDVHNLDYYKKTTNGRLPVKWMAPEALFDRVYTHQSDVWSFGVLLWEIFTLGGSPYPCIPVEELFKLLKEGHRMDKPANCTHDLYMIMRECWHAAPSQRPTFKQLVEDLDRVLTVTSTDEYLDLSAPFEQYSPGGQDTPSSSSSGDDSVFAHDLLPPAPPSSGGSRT
T5 sequence (P10721 26-976 D816H): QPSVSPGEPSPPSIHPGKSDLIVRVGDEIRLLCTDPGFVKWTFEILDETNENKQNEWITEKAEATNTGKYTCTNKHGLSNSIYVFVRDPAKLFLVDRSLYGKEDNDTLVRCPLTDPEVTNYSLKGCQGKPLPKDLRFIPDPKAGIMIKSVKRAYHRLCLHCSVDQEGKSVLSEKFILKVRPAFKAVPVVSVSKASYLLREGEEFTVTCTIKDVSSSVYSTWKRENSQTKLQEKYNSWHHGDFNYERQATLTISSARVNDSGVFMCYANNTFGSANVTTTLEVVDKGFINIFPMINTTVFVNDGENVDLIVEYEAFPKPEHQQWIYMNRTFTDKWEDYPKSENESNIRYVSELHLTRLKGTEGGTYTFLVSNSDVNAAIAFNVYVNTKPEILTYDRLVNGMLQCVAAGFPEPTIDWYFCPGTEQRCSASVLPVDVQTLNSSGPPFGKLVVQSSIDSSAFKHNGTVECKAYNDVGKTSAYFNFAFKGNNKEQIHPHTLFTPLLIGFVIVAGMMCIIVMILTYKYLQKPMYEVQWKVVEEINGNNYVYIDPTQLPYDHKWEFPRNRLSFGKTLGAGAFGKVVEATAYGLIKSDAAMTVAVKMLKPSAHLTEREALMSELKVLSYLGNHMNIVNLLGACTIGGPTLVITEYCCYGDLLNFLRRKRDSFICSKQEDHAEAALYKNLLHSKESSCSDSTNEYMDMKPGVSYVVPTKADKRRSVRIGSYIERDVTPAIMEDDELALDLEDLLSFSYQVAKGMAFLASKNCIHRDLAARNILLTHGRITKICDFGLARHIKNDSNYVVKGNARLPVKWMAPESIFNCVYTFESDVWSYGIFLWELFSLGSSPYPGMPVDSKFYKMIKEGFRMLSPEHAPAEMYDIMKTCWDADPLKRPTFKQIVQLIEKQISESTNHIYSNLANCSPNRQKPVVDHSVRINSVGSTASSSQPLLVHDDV
T6 sequence (P10721 26-976 D816V): as the sequence (P10721 26-976 D816H) above, with H791V counted along it
T8 sequence (P10721 26-976 V559D/T670I): as the sequence (P10721 26-976 D816H) above, with V534D, T645I, H791D counted along it
T7 sequence (P10721 26-976 L576P): as the sequence (P10721 26-976 D816H) above, with L551P, H791D counted along it
T9 sequence (Q14289 whole entry): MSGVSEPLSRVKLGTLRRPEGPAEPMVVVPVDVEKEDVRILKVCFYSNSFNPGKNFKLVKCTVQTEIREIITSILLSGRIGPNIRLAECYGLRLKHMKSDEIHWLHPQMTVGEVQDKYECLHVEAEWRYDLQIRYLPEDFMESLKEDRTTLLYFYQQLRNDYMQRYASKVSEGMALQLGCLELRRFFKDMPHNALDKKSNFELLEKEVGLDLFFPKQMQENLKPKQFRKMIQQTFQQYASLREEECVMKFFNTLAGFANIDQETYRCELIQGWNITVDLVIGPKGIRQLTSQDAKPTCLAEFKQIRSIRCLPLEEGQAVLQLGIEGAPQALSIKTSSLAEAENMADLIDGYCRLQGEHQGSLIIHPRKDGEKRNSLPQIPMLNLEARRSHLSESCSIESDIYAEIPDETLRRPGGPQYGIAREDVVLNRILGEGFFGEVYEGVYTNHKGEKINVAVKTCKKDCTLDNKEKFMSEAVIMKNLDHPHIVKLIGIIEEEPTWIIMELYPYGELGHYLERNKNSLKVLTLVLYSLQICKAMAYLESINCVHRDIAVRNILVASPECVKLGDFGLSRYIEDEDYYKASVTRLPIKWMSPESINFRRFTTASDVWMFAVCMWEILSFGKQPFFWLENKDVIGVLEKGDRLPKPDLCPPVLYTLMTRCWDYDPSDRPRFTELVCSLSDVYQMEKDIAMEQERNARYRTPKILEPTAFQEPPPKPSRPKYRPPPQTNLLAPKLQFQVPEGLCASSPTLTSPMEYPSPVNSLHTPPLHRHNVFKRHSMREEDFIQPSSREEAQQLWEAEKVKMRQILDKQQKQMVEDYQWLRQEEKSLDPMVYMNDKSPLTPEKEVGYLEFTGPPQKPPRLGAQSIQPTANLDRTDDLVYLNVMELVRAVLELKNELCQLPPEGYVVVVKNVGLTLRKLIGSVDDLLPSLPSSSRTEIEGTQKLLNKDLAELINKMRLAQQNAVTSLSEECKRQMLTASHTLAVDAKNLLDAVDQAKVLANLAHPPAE

SMILES | difference in %Control versus reference Ib at 1 µM ([1]; @1000nM) [%] | remaining binding at 1 µM ([1]; @1000nM, read-out: %Control) [%] | remaining binding at 1 µM (CTK; @1000nM, read-out: %Control) [%] | remaining binding at 1 µM (CTK; read-out: %Control @1000nM) [%] | remaining binding at 1 µM (EPHB2; @1000nM, read-out: %Control) [%] | remaining binding at 1 µM (EPHB2; read-out: %Control @1000nM) [%] | remaining binding at 1 µM (FGFR3(G697C); @1000nM, read-out: %Control) [%] | remaining binding at 1 µM (FGFR3(G697C); read-out: %Control @1000nM) [%] | remaining binding at 1 µM (KIT(D816H); @1000nM, read-out: %Control) [%] | remaining binding at 1 µM (KIT(D816H); read-out: %Control @1000nM) [%] | remaining binding at 1 µM (KIT(D816V); @1000nM, read-out: %Control) [%] | remaining binding at 1 µM (KIT(D816V); read-out: %Control @1000nM) [%] | remaining binding at 1 µM (KIT(L576P); @1000nM, read-out: %Control) [%] | remaining binding at 1 µM (KIT(L576P); read-out: %Control @1000nM) [%] | remaining binding at 1 µM (KIT(V559D,T670I); @1000nM, read-out: %Control) [%] | remaining binding at 1 µM (KIT(V559D,T670I); read-out: %Control @1000nM) [%] | remaining binding at 1 µM (PYK2; @1000nM, read-out: %Control) [%] | remaining binding at 1 µM (PYK2; read-out: %Control @1000nM) [%] | remaining binding at 1 µM (TNK1; @1000nM, read-out: %Control) [%] | remaining binding at 1 µM (TNK1; read-out: %Control @1000nM) [%] | further results
CCOC(=O)c1cnc(S(C)(=O)=O)nc1N1CCC[C@@H](n2nc(-c3ccc(Oc4ccccc4)cc3)c3c(N)ncnc32)C1 [Compound 8c, Ethyl (R)-4-(3-(4-Amino-3-(4-phenoxyphenyl)-1H-pyrazolo[3,4-d]pyrimidin-1-yl)piperidin-1-yl)-2-(methylsulfonyl)pyrimidine-5-carboxylate] | -2 | 92 | 74 | 74 | 98 | 98 | 90 | 90 | 55 | 55 | 85 | 85 | 64 | 64 | 34 | 34 | 81 | 81 | 81 | 81 | remaining binding at 1 µM ([1]; read-out: %Control @1000nM): 92%; difference in %Control versus compound Ib at 1 µM (CTK; @1000nM): -6%; %Control difference from compound Ib at 1 µM (EPHB2; @1000nM): -2%; difference in %Control versus compound Ib at 1 µM (FGFR3(G697C); @1000nM): 50%; difference in %Control versus Ib at 1 µM (KIT(L576P); @1000nM): 32%; difference in %Control versus compound Ib at 1 µM (KIT(V559D,T670I); @1000nM): -34%
Cc1cnc(S(C)(=O)=O)nc1N1CCCC(n2nc(-c3ccc(Oc4ccccc4)cc3)c3c(N)ncnc32)C1 (stereo not drawn) [Compound 8a, 1-(1-(5-Methyl-2-(methylsulfonyl)pyrimidin-4-yl)piperidin-3-yl)-3-(4-phenoxyphenyl)-1H-pyrazolo[3,4-d]pyrimidin-4-amine] | 4 | 98 | 67 | 67 | 84 | 84 | 97 | 97 | 87 | 87 | 74 | 74 | 44 | 44 | 68 | 68 | 92 | 92 | 91 | 91 | remaining binding at 1 µM ([1]; read-out: %Control @1000nM): 98%; difference in %Control versus compound Ib at 1 µM (CTK; @1000nM): -13%; %Control difference from compound Ib at 1 µM (EPHB2; @1000nM): -16%; difference in %Control versus compound Ib at 1 µM (FGFR3(G697C); @1000nM): 57%; difference in %Control versus Ib at 1 µM (KIT(L576P); @1000nM): 12%; difference in %Control versus compound Ib at 1 µM (KIT(V559D,T670I); @1000nM): 0%
C=CC(=O)N1CCC[C@@H](n2nc(-c3ccc(Oc4ccccc4)cc3)c3c(N)ncnc32)C1 [Compound 1g, Ibrutinib, reference compound] |  |  | 80 | 80 | 100 | 100 | 40 | 40 | 100 | 100 | 86 | 86 | 32 | 32 | 68 | 68 | 100 | 100 | 93 | 93 | 
COC(=O)c1cnc(S(C)(=O)=O)nc1N1CCCC(n2nc(-c3ccc(Oc4ccccc4)cc3)c3c(N)ncnc32)C1 (stereo not drawn) [Compound 8b, Methyl 4-(3-(4-Amino-3-(4-phenoxyphenyl)-1H-pyrazolo[3,4-d]pyrimidin-1-yl)piperidin-1-yl)-2-(methylsulfonyl)pyrimidine-5-carboxylate] | -2 | 92 | 88 | 88 | 91 | 91 | 84 | 84 | 98 | 98 | 85 | 85 | 56 | 56 | 92 | 92 | 85 | 85 | 88 | 88 | remaining binding at 1 µM ([1]; read-out: %Control @1000nM): 92%; difference in %Control versus compound Ib at 1 µM (CTK; @1000nM): 8%; %Control difference from compound Ib at 1 µM (EPHB2; @1000nM): -9%; difference in %Control versus compound Ib at 1 µM (FGFR3(G697C); @1000nM): 44%; difference in %Control versus Ib at 1 µM (KIT(L576P); @1000nM): 24%; difference in %Control versus compound Ib at 1 µM (KIT(V559D,T670I); @1000nM): 24%
